Legend:
Format in all cases: biochemical
α-synuclein fibrils [1] = molecular target: T1, α-synuclein fibrils (Homo sapiens, UniProt P37840); experiment: Thioflavin T fluorometry, disruption of pre-formed α-synuclein fibrils (Example 12); conditions: 3 days; for disruption/disassembly of pre-formed α-synuclein fibrils, in words: Thioflavin T fluorometry, all concentrations tested; for % Inhibition α-synuclein (result ± S.D.), Thioflavin T fluorometry: 30 μg pre-fibrillized α-synuclein, 37° C.
T1 construct: purchased rPeptide
Description: In this assay, Thioflavin T binds specifically to α-synuclein fibrils, and this binding produces a fluorescence enhancement at 485 nm that is directly proportional to the amount of α-synuclein fibrils present. The higher the fluorescence, the greater the amount of α-synuclein fibrils present (Naki et al, Lab. Invest. 65:104-110, 1991; Levine III, Protein Sci. 2:404-410, 1993; Amyloid: Int. J. Exp. Clin. Invest. 2:1-6, 1995).
In this study, 30 μg of pre-fibrillized α-synuclein (rPeptide) was incubated at 37° C. for 3 days either alone or in the presence of compounds DC-0051-F1, F2, F3, F4, F5, F6 or EDTA (at α-synuclein:test compound weight ratios of 1:1, 1:0.1, 1:0.01 or 1:0.001). Following 3-days of co-incubation, 50 μl of each incubation mixture was transferred into a 96-well microtiter plate containing 150 μl of distilled water and 50 μl of a Thioflavin T solution (i.e. […] Thioflavin T in 250 mM phosphate buffer, pH 6.8). The fluorescence was read at 485 nm (444 nm excitation wavelength) using an ELISA plate fluorometer after subtraction with buffer alone or compound alone, as blank.

Aβ 1-42 fibrils [2] = molecular target: T2, Aβ 1-42 fibrils (Homo sapiens, UniProt P05067); experiment: Thioflavin T fluorometry, disruption of pre-formed Aβ 1-42 fibrils (Example 11); conditions: 30 μg pre-fibrillized Aβ 1-42, 37° C., 3 days
T2 construct: purchased Bachem Inc
Description: In one study, Thioflavin T fluorometry was used to determine the effects of the compounds, and of EDTA (as a negative control). In this assay Thioflavin T binds specifically to fibrillar amyloid, and this binding produces a fluorescence enhancement at 485 nm that is directly proportional to the amount of amyloid fibrils formed. The higher the fluorescence, the greater the amount of amyloid fibrils formed (Naki et al., Lab. Invest. 65:104-110, 1991; Levine III, Protein Sci. 2:404-410, 1993; Amyloid: Int. J. Exp. Clin. Invest. 2:1-6, 1995).
Following 3-days of co-incubation, 50 μl of each incubation mixture was transferred into a 96-well microtiter plate containing 150 μl of distilled water and 50 μl of a Thioflavin T solution (i.e. 500 mM Thioflavin T in 250 mM phosphate buffer, pH 6.8). The fluorescence was read at 485 nm (444 nm excitation wavelength) using an ELISA plate fluorometer after subtraction with buffer alone or compound alone, as blank.

α-synuclein fibrils [3] = molecular target: T1, α-synuclein fibrils; experiment: Congo red binding assay, α-synuclein fibrils (Example 12); conditions: 3-day incubation
Description: (§1) In the Congo red binding assay, the ability of a given test compound to alter amyloid (in this case, α-synuclein) binding to Congo red is quantified. In this assay, α-synuclein and test compounds were incubated for 3 days and then vacuum filtered through a 0.2 μm filter. The amount of α-synuclein retained in the filter was then quantitated following staining of the filter with Congo red. After appropriate washing of the filter, any lowering of the Congo red color on the filter in the presence of the test compound (compared to the Congo red staining of the amyloid protein in the absence of the test compound) was indicative of the test compound's ability to diminish/alter the amount of aggregated and congophilic α-synuclein.
In one study, the ability of α-synuclein fibrils to bind Congo red in the absence or presence of increasing amounts of compounds DC-0051-F1, F2, F3, F4, F5, F6 and EDTA (at α-synuclein:test compound weight ratios of 1:1, 1:0.1, 1:0.01 or 1:0.001) was determined.

Aβ 1-42 fibrils [4] = molecular target: T2, Aβ 1-42 fibrils; experiment: Congo red binding assay, Aβ 1-42 fibrils (Example 11); conditions: 3-day incubation
Description: as §1, with “a” for “a given”, “Aβ)” for “α-synuclein)”, “Aβ 1-42” for “α-synuclein”, “Aβ.” for “α-synuclein.”
In one study, the ability of Aβ fibrils to bind Congo red in the absence or presence of increasing amounts of the compounds or EDTA (at Aβ:test compound weight ratios of 1:1, 1:0.1, 1:0.01 or 1:0.001) was determined.

[5] = α-synuclein:test compound wt/wt ratio 1:0.001
[6] = α-synuclein:test compound wt/wt ratio 1:0.01
[7] = α-synuclein:test compound wt/wt ratio 1:0.1
[8] = α-synuclein:test compound wt/wt ratio 1:1
[9] = Aβ:test compound wt/wt ratio 1:0.001
[10] = Aβ:test compound wt/wt ratio 1:0.01
[11] = Aβ:test compound wt/wt ratio 1:0.1
[12] = Aβ:test compound wt/wt ratio 1:1

T2 sequence (P05067 672-713): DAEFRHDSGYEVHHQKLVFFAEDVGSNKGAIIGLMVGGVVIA

Row | Structure (SMILES) | disruption/disassembly of pre-formed α-synuclein fibrils, in words (α-synuclein fibrils [1]) | % Inhibition α-synuclein (result ± S.D.), Thioflavin T fluorometry (α-synuclein fibrils [1]; [5]) [%] | % Inhibition α-synuclein (result ± S.D.), Thioflavin T fluorometry (α-synuclein fibrils [1]; [6]) [%] | % Inhibition α-synuclein (result ± S.D.), Thioflavin T fluorometry (α-synuclein fibrils [1]; [7]) [%] | % Inhibition α-synuclein (result ± S.D.), Thioflavin T fluorometry (α-synuclein fibrils [1]; [8]) [%] | % Inhibition Aβ (result ± S.D.), Thioflavin T fluorometry (Aβ 1-42 fibrils [2]; [9]) [%] | % Inhibition Aβ (result ± S.D.), Thioflavin T fluorometry (Aβ 1-42 fibrils [2]; [10]) [%] | % Inhibition Aβ (result ± S.D.), Thioflavin T fluorometry (Aβ 1-42 fibrils [2]; [11]) [%] | % Inhibition Aβ (result ± S.D.), Thioflavin T fluorometry (Aβ 1-42 fibrils [2]; [12]) [%] | % Inhibition α-synuclein (result ± S.D.), Congo red binding (α-synuclein fibrils [3]; [5]) [%] | % Inhibition α-synuclein (result ± S.D.), Congo red binding (α-synuclein fibrils [3]; [6]) [%] | % Inhibition α-synuclein (result ± S.D.), Congo red binding (α-synuclein fibrils [3]; [7]) [%] | % Inhibition α-synuclein (result ± S.D.), Congo red binding (α-synuclein fibrils [3]; [8]) [%] | % Inhibition Aβ (result ± S.D.), Congo red binding (Aβ 1-42 fibrils [4]; [9]) [%] | % Inhibition Aβ (result ± S.D.), Congo red binding (Aβ 1-42 fibrils [4]; [10]) [%] | % Inhibition Aβ (result ± S.D.), Congo red binding (Aβ 1-42 fibrils [4]; [11]) [%] | % Inhibition Aβ (result ± S.D.), Congo red binding (Aβ 1-42 fibrils [4]; [12]) [%]
1 | O=C(Nc1ccc(O)c(O)c1)c1ccc(O)c(O)c1F [DC-0051-F1, 3,4-Dihydroxy-2-fluoro-N-(3,4-dihydroxyphenyl)benzamide] | dose-dependent disruption/disassembly | 13.7 ± 6.06 | 58.4 ± 5.06 | 90.4 ± 2.07 | 100.0 ± 3.14 | 15.6 ± 2.01 | 37.1 ± 1.44 | 91.3 ± 1.39 | 98.7 ± 0.38 | 0.0 ± 3.42 | 3.8 ± 5.82 | 32.9±2.97 | 69.8±2.67 | 3.7 ± 4.36 | 2.2 ± 7.70 | 27.5±2.39 | 80.1±2.61
2 | O=C(Nc1ccc(O)c(O)c1)c1cc(O)c(O)cc1F [DC-0051-F2, N-(3,4-dihydroxyphenyl)-2-fluoro-4,5-dihydroxy benzamide] | dose-dependent disruption/disassembly | 15.9 ± 7.20 | 61.1±1.37 | 94.7±2.57 | 100.0 ± 1.49 | 17.1 ± 4.32 | 53.7±6.29 | 95.9±0.88 | 99.6 ± 0.55 | 0.0 ± 6.71 | 3.7 ± 2.83 | 36.5±53.4 | 67.8±3.52 | 4.9 ± 7.88 | 0.5 ± 5.24 | 49.9±9.13 | 80.1±3.79
3 | O=C(Nc1ccc(O)c(O)c1)c1cc(O)c(O)c(F)c1 [DC-0051-F3, 4,5-Dihydroxy-3-fluoro-N-(3,4-dihydroxyphenyl)benzamide] | dose-dependent disruption/disassembly | 13.8 ± 5.12 | 59.6±6.39 | 92.5±2.35 | 96.8 ± 2.82 | 15.1 ± 3.81 | 34.6 ± 2.21 | 92.3 ± 0.19 | 99.0 ± 0.77 | 0.0 ± 3.93 | 2.6 ± 4.90 | 23.3 ± 2.24 | 55.9 ± 2.65 | 0.0 ± 2.64 | 0.0 ± 3.25 | 23.3 ± 5.01 | 74.5 ± 2.69
4 | O=C(Nc1cc(O)c(O)c(F)c1)c1ccc(O)c(O)c1 [DC-0051-F4, N-(3-fluoro-4,5-dihydroxyphenyl)-3,4-dihydroxybenzamide] | dose-dependent disruption/disassembly | 6.1 ± 9.44 | 40.6 ± 1.49 | 94.3 ± 1.22 | 100.0 ± 2.84 | 16.0 ± 6.64 | 33.4 ± 2.09 | 79.8 ± 0.77 | 99.7 ± 0.58 | 6.1 ± 8.92 | 0.0 ± 3.44 | 18.0 ± 0.58 | 64.8 ± 5.08 | 4.3 ± 11.81 | 8.8 ± 5.07 | 10.9 ± 5.05 | 71.0 ± 2.39
